The subject of experiment [1] is Vaccinia virus WR. Nature of the experiment: Antiviral activity against Vaccinia virus WR ATCC VR-1354 infected through intravenous route in BALB/c mouse assessed as reduction of viral load in lung at 100 mg/kg, po qd measured after 14 days postinfection by RT-PCR analysis relative to control. It counts as functional, organism-based. Also noted: dose 100 mg/kg.
The test system of experiment [2] is Vaccinia virus WR. Nature of the experiment: Antiviral activity against Vaccinia virus WR ATCC VR-1354 infected through intraperitoneal route in BALB/c mouse assessed as reduction of viral load in blood at 100 mg/kg, po qd measured after 3 days postinfection by RT-PCR analysis relative to control. Set-up: dose 100 mg/kg. It counts as functional, organism-based.

The subject of experiment [3] is Vaccinia virus WR. Briefly: Antiviral activity against Vaccinia virus WR ATCC VR-1354 infected through intraperitoneal route in BALB/c mouse assessed as reduction of viral load in brain at 100 mg/kg, po qd measured after 5 days postinfection by RT-PCR analysis relative to control. It counts as functional, organism-based. Also noted: dose 100 mg/kg.
Experiment [4] concerns Vaccinia virus WR. Nature of the experiment: Antiviral activity against Vaccinia virus WR ATCC VR-1354 infected through percutaneous route in BALB/c mouse assessed as protection against virus-induced death at 100 mg/kg, po qd for 1 to 3 days. The format is functional, organism-based. Also noted: dose 100 mg/kg.
Experiment [5] deals with Vaccinia virus WR. Briefly: Antiviral activity against Vaccinia virus WR ATCC VR-1354 infected through percutaneous route in BALB/c mouse assessed as protection against hypothermia at 100 mg/kg, po qd for 1 to 3 days measured on day 2. The format is functional, organism-based. Set-up: dose 100 mg/kg.
Experiment [6] concerns Vaccinia virus WR. Briefly: Antiviral activity against Vaccinia virus WR ATCC VR-1354 infected through percutaneous route in BALB/c mouse assessed as inhibition of virus dissemination in liver at 100 mg/kg, po qd for 3 to 14 days by RT-PCR analysis. It counts as functional, organism-based. Also noted: dose 100 mg/kg.
Experiment [7] relates to Vaccinia virus WR. Briefly: Antiviral activity against Vaccinia virus WR ATCC VR-1354 infected through percutaneous route in BALB/c mouse assessed as protection against virus-induced death at 100 mg/kg, po qd administered 3 days after postinfection measured on day 6. It counts as functional.
The test system of experiment [8] is Vaccinia virus WR. Nature of the experiment: Antiviral activity against Vaccinia virus WR ATCC VR-1354 infected through percutaneous route in BALB/c mouse assessed as reduction of viral load in brain at 100 mg/kg, po qd measured after 5 days postinfection by RT-PCR analysis relative to control. The format is functional.
The subject of experiment [9] is Vaccinia virus WR. Nature of the experiment: Antiviral activity against Vaccinia virus WR ATCC VR-1354 infected through dermal scarification route in BALB/c mouse assessed as reduction of viral load in lung at 100 mg/kg, po qd measured after 5 days postinfection by RT-PCR analysis relative to control. The format is functional.

Active and inactive are the calls of the source. The calls are words filed in the database; no cut-off is given here.

Consider `O=C(NN1C(=O)[C@@H]2[C@@H]3C=C[C@@H]([C@H]4C[C@@H]34)[C@@H]2C1=O)c1ccc(C(F)(F)F)cc1` [TECOVIRIMAT], for which the outcome in experiment [1], in [3] and in experiment [6] was Active. In addition, the result in experiment [2], in [4] and in experiment [5] was inactive. In addition, the Activity in experiment [7] stood at 100%. Further, the “fold change (FC)” value is 13 in [8] and 18 in experiment [9].

These data come from ChEMBL document CHEMBL1649270, “ST-246 inhibits in vivo poxvirus dissemination, virus shedding, and systemic disease manifestation” (2009).
